The values that follow come from PubChem BioAssay (NCI).

Some test systems named below: A549 NSCLC; HCC-2998 colon; HL-60(TB) leukemia; M14 melanoma; RXF 393 renal; SF-295 CNS; SN12C renal; SNB-19 CNS; U251 CNS; A498 renal.
What all share (test): growth of human tumour cells (NCI), 48 h

“And” between values parts separate entries of the source, which are not always exact repeats. Equal values may be shown once.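 These data come from cells grown in 96-well plates and exposed to compound for 48 hours at five concentrations. GI50: concentration for 50% inhibition of growth. TGI denotes the concentration required for complete inhibition of growth.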

As to `Oc1ccccc1/C=N\Nc1ccccc1`, the GI50 was 3.94 µM in the experiment with A549 NSCLC; 3.45 µM in the experiment on HCC-2998 colon; 1.31 µM with HL-60(TB) leukemia; 3.7 µM in the experiment with M14 melanoma; 19.1 µM in the experiment on RXF 393 renal; 1.63 µM in the experiment on SF-295 CNS. Further, the values for the GI50 with SN12C renal, in the experiment on SNB-19 CNS and with U251 CNS were 3.41 µM, 13.7 µM and 10.2 µM, respectively. The TGI with A549 NSCLC is above 100 µM; in the experiment on HCC-2998 colon, 15.5 µM; with HL-60(TB) leukemia, 4.8 µM; in the experiment with M14 melanoma, 19.4 µM; with RXF 393 renal, 77.9 µM; with SF-295 CNS it was 8.07 µM. Besides, the TGI was above 100 µM in the experiment with SN12C renal, 95 µM in the experiment on SNB-19 CNS and 65.6 µM in the experiment on U251 CNS.

With `Cc1nccc2c3ccc(OCc4cn(-c5ccc(Br)cc5)nn4)cc3n(CCCc3ccccc3)c12`, the GI50 was above 100 µM with A498 renal; above 100 µM with HCC-2998 colon; 6.53 µM with HL-60(TB) leukemia; 1.14 µM in the experiment with M14 melanoma; above 100 µM in the experiment with SF-295 CNS; 3.35 µM in the experiment on SNB-19 CNS. For the same compound, in the experiment with U251 CNS, the GI50 is 1.92 µM. Moreover, the TGI in the experiment on A498 renal is above 100 µM; with HCC-2998 colon it was above 100 µM; in the experiment with HL-60(TB) leukemia, above 100 µM; in the experiment with M14 melanoma it was 2.47 µM; with SF-295 CNS it was above 100 µM; in the experiment on SNB-19 CNS it was above 100 µM. In the experiment with U251 CNS, this compound gave a TGI of 3.79 µM.

As for `CC1OC(OC2C(O)C(OCCc3ccc(O)c(O)c3)OC(CO)C2OC(=O)/C=C/c2ccc(O)c(O)c2)C(O)C(O)C1O` (stereo not given), the GI50 with A549 NSCLC is above 100 µM; with HCC-2998 colon, 19 µM; in the experiment on HL-60(TB) leukemia, 14.9 µM; with M14 melanoma it was above 100 µM; in the experiment on SF-295 CNS, 31.5 µM; with SN12C renal, 20.5 µM. In the experiment with SNB-19 CNS, the GI50 is above 100 µM. Moreover, the TGI was above 100 µM with A549 NSCLC; 35.6 µM with HCC-2998 colon; above 100 µM in the experiment with HL-60(TB) leukemia; above 100 µM in the experiment on M14 melanoma; above 100 µM in the experiment on SF-295 CNS; 36.8 µM with SN12C renal. This compound gave a TGI in the experiment on SNB-19 CNS above 100 µM.

`CC(=O)OCC1OC([S-])C(OC(C)=O)C(OC(C)=O)C1OC(C)=O.[Au+].c1ccc(CN2[CH-]N(Cc3ccccc3)C(c3ccccc3)=C2c2ccccc2)cc1`: the TGI in the experiment with A549 NSCLC is 34.7 µM and 7.32 µM; in the experiment with HCC-2998 colon, 3.34 µM and 1.9 µM; in the experiment with HL-60(TB) leukemia, 7.57 µM and 2.35 µM; in the experiment on M14 melanoma, 5.66 µM and 3 µM; with RXF 393 renal it was 3.19 µM and 1.26 µM; in the experiment with SF-295 CNS, 20.3 µM and 4.59 µM. Besides, the TGI in the experiment on SN12C renal is 5.08 µM and 1.18 µM; in the experiment with SNB-19 CNS it was 3.18 µM and 1.18 µM; with U251 CNS, 3.2 µM and 0.942 µM. The GI50 is 1.64 µM and 0.625 µM in the experiment with HCC-2998 colon; 2.57 µM and 0.573 µM in the experiment with HL-60(TB) leukemia; 2.27 µM and 0.798 µM in the experiment with M14 melanoma; 1.71 µM and 0.527 µM in the experiment on RXF 393 renal; 1.7 µM and 0.3 µM in the experiment with SNB-19 CNS; 1.74 µM and 0.251 µM in the experiment with U251 CNS.

`Cc1cc(C(=O)CC(Cl)=C(Cl)Cl)c(Cl)cc1Cl`: the GI50 with A498 renal was 18.2 µM; in the experiment with A549 NSCLC it was 23.7 µM; with M14 melanoma, 31.7 µM; in the experiment with RXF 393 renal it was 17.8 µM; in the experiment on SF-295 CNS it was 19.9 µM; in the experiment on SN12C renal, 19.5 µM. Further, the GI50 in the experiment with SNB-19 CNS is 35.4 µM; in the experiment on U251 CNS, 18.6 µM. The TGI came out at 51.5 µM in the experiment on A498 renal; 65.9 µM in the experiment on A549 NSCLC; 78.2 µM with M14 melanoma; 43.1 µM with RXF 393 renal; 54.8 µM in the experiment with SF-295 CNS; 44.7 µM with SN12C renal. The TGI was above 100 µM in the experiment with SNB-19 CNS and 38.1 µM in the experiment with U251 CNS.

As for `Nc1nc(N)c(CCCCc2ccccc2)c(/C=C/c2ccc([N+](=O)[O-])cc2)n1`, the TGI in the experiment on A549 NSCLC was 19.3 µM; in the experiment on HCC-2998 colon it was 9.04 µM; with HL-60(TB) leukemia, 3.14 µM; with M14 melanoma it was 9.24 µM; in the experiment on SF-295 CNS, 14.5 µM; with SN12C renal, 8.96 µM. Besides, the TGI came to 64.7 µM with SNB-19 CNS and 11.4 µM in the experiment with U251 CNS.

In the case of `COc1cc(C(=O)c2cnc(-c3ccc4cc[nH]c4c3)[nH]2)cc(OC)c1OC`, the GI50 is 0.0136 µM with A498 renal; 0.0523 µM in the experiment with A549 NSCLC; 0.117 µM with HCC-2998 colon; 0.0224 µM in the experiment on HL-60(TB) leukemia; 0.066 µM in the experiment with SN12C renal; 0.0409 µM with SNB-19 CNS. For the same compound, in the experiment with U251 CNS, the GI50 is 0.0393 µM. In addition, the TGI with A498 renal stood at 0.0788 µM; in the experiment with A549 NSCLC, 11.7 µM; in the experiment with HCC-2998 colon, 4.02 µM; in the experiment on HL-60(TB) leukemia, 0.0535 µM; with SN12C renal, 14.7 µM; in the experiment with SNB-19 CNS it was 13.7 µM. In the experiment on U251 CNS, the TGI was 11 µM.

Turning to `C#Cc1cccc(Nc2ncnc3ccc(-c4cnc(N)nc4)cc23)c1`, the GI50 was 2.02 µM in the experiment with A549 NSCLC; 5.14 µM with HCC-2998 colon; 2.59 µM in the experiment on HL-60(TB) leukemia; 3.73 µM in the experiment with M14 melanoma; 0.693 µM in the experiment with RXF 393 renal; 2.56 µM with SF-295 CNS. Besides, the GI50 was 1.81 µM with SN12C renal, 3.15 µM with SNB-19 CNS and 3.18 µM with U251 CNS. For the same compound, the TGI in the experiment on A549 NSCLC came out at 14.4 µM; in the experiment with HCC-2998 colon it was 23.4 µM; in the experiment on HL-60(TB) leukemia, 11 µM; with M14 melanoma, 15.7 µM; in the experiment with RXF 393 renal it was 3.44 µM; in the experiment with SF-295 CNS it was 12.2 µM. The TGI came out at 12.7 µM in the experiment with SN12C renal, 21.5 µM in the experiment on SNB-19 CNS and 16.9 µM in the experiment on U251 CNS.

For `Cc1cc2oc(=O)cc(OC/C=C3/CCC(=O)O3)c2cc1C`, the GI50 in the experiment on A498 renal is 2.14 µM; with A549 NSCLC it was 13.4 µM; with HCC-2998 colon, 15.4 µM; with M14 melanoma it was 2.18 µM; in the experiment with RXF 393 renal, 1.83 µM; in the experiment on SF-295 CNS, 13.7 µM. In addition, the GI50 in the experiment on SN12C renal was 5.2 µM; with SNB-19 CNS it was 3.04 µM; in the experiment with U251 CNS, 3.42 µM. Moreover, the TGI with A498 renal turned out to be 12 µM; in the experiment on A549 NSCLC, 27.1 µM; in the experiment on HCC-2998 colon, 31 µM; in the experiment with M14 melanoma, 4.87 µM; with RXF 393 renal, 9.81 µM; with SF-295 CNS it was 32 µM. Moreover, the TGI in the experiment on SN12C renal is 22.5 µM; in the experiment on SNB-19 CNS it was 19 µM; with U251 CNS, 15.1 µM.
